Measurements from ChEMBL document CHEMBL1150559 (Bioorg Med Chem Lett, 1997).
Values after ≈ are worked out from the molar mass of the structure shown.

Key:
Substance-P receptor [1] = biological target: Substance-P receptor (Cavia porcellus, UniProt P30547); assay: Antagonism of the guinea pig tachykinin NK1 receptor; type: functional
Histamine H1 receptor [2] = biological target: T1, Histamine H1 receptor (Homo sapiens, UniProt P35367); type: functional
Histamine H1 receptor [3] = biological target: T1, Histamine H1 receptor; assay: Compound was evaluated for the antagonistic activity against H1 receptor; type: functional
Substance-P receptor [4] = biological target: Substance-P receptor (Homo sapiens, UniProt P25103); assay: Compound was evaluated for the antagonistic activity against NK1 receptor; type: functional
Sequence of Substance-P receptor (Homo sapiens, UniProt P25103) (P25103 whole entry): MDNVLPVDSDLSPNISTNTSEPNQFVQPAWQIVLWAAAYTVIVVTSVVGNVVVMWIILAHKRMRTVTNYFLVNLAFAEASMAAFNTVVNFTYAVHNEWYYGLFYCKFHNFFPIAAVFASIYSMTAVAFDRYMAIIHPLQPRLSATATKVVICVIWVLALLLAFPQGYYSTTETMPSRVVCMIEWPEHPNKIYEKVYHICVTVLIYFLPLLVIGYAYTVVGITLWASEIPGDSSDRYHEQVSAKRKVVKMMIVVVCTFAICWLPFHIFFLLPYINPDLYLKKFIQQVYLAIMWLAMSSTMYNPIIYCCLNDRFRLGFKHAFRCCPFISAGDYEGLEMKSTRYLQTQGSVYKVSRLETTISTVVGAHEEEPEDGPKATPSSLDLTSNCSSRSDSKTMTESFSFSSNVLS

Substance-K receptor = biological target: T2, Substance-K receptor (Homo sapiens, UniProt P21452); assay: Compound was evaluated for the antagonistic activity against Tachykinin receptor 2; type: functional
T2 sequence (P21452 whole entry): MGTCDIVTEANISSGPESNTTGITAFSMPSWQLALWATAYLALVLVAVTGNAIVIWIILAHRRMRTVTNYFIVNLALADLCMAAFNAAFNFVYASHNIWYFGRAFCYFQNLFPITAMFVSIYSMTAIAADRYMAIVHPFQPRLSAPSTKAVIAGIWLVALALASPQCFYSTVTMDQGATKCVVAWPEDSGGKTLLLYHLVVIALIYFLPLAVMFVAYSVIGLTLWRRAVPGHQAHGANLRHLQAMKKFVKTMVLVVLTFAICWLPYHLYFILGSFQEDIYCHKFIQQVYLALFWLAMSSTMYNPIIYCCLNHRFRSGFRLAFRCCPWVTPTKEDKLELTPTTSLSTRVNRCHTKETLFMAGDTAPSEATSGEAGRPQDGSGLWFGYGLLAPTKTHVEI

[5] = Compound was tested for its solubility at pH 7.4; type: physicochemical; details: buffer
Cavia porcellus [6] = organism: Cavia porcellus; assay: Inhibition of histamine-induced contraction of guinea pig ileum in a concentration-dependent fashion; type: functional; details: read-out: pA2 (converted)
[7] = Dose-dependent inhibition of SP-induced increases in phosphatidylinositol turnover in UC11 cells; type: functional, cell-based; details: Homo sapiens, read-out: pA2 (converted)
[8] = Compound was calculated log P; details: pH 7.4
Cavia porcellus [9] = organism: Cavia porcellus; assay: Compound with maleate salt was tested for inhibition of histamine-induced skin wheal response in guinea pigs; type: functional

T1 sequence (P35367 whole entry): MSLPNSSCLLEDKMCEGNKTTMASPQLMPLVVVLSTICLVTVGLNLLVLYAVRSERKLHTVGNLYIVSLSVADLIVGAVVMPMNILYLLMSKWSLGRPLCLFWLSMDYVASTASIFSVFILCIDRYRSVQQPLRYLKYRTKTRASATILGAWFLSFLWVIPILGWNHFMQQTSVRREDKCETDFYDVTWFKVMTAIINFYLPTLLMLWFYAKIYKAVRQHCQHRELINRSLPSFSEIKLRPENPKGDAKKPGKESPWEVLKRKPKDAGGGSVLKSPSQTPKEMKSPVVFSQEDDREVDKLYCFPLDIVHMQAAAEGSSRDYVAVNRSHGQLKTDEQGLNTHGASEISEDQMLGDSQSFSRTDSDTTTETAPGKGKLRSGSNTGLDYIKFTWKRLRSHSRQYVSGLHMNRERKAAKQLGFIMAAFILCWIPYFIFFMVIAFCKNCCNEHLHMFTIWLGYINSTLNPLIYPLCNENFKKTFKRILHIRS
Sequence of Substance-P receptor (Cavia porcellus, UniProt P30547) (P30547 whole entry): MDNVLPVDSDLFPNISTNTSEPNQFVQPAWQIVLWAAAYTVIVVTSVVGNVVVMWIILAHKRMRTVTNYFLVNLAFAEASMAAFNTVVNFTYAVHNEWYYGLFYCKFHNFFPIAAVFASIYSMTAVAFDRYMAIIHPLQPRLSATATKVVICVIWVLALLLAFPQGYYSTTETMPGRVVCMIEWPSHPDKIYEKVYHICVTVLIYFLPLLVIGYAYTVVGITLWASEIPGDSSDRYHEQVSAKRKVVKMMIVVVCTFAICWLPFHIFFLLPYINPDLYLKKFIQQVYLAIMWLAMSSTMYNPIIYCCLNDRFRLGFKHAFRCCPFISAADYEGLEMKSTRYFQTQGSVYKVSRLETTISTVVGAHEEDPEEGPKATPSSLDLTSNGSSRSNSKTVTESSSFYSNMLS

SMILES	IC50 (Substance-P receptor [1]) [µM]	IC50 (Histamine H1 receptor [2]) [µM]	other results
COC(=O)c1ccccc1OCCCn1c(C(=O)C2CCN(CCC3(c4ccccc4)CCN(C(=O)c4cc(OC)c(OC)c(OC)c4)C3)CC2)nc2ccccc21 (centres undefined)	0.016	0.994	
COc1cc(C(=O)N2CC[C@](CCN3CCC(C(N)=O)(c4ccccc4)CC3)(c3ccc(Cl)c(Cl)c3)C2)cc(OC)c1OC			IC50 (Histamine H1 receptor [3]): 10 µM; IC50 (Substance-P receptor [4]): 0.003 µM; IC50 (Substance-K receptor): 0.008 µM
COc1cc(C(=O)N2CCC(CCN3CCC(C(=O)c4nc5ccccc5[nH]4)CC3)(c3ccccc3)C2)cc(OC)c1OC (centres undefined)	0.036		
COc1cc(C(=O)N2CCC(CCN3CCC(C(=O)c4nc5ccccc5n4Cc4ccccn4)CC3)(c3ccc(Cl)c(Cl)c3)C2)cc(OC)c1OC (centres undefined)	0.032		
COc1cc(C(=O)N2CCC(CCN3CCC(C(=O)c4nc5ccccc5n4CCCOc4ccccc4C(=O)O)CC3)(c3ccccc3)C2)cc(OC)c1OC (centres undefined)	0.027	9.45	
COc1ccc(C2(CCN3CCC(C(=O)c4nc5ccccc5n4Cc4ccc(F)cc4)CC3)CCN(C(=O)c3cc(OC)c(OC)c(OC)c3)C2)cc1OC (centres undefined)		0.309	solubility [5]: < 0.1 µg/mL; Kb (Cavia porcellus [6]): 0.0302 µM; Kb [7]: 0.0661 µM; logP [8]: 4.72; ED50 (Cavia porcellus [9]): 18.9 mg/kg
COc1ccc(CCN2CCC(C(=O)c3nc4ccccc4n3Cc3ccc(F)cc3)CC2)cc1			IC50 (Substance-P receptor [4]): 5.2 µM; IC50 (Substance-K receptor): 3.39 µM
COc1ccccc1CN[C@H]1C2CCN(CC2)[C@H]1C(c1ccccc1)c1ccccc1 [CP-96345]		~10	
CC(C)(C)c1ccc(C(O)CCCN2CCC(C(O)(c3ccccc3)c3ccccc3)CC2)cc1 (centres undefined) [TERFENADINE]	> 10		

Now from value to compound, other results behind:

IC50 (Substance-P receptor [1]) [µM]	IC50 (Histamine H1 receptor [2]) [µM]	SMILES	other results
0.296		COc1cc(C(=O)N2CCC(CCN3CCC(C(=O)c4nc5ccccc5n4Cc4ccc(F)cc4)CC3)(c3ccc(F)cc3F)C2)cc(OC)c1OC (centres undefined)	
0.026		CCOCCn1c(C(=O)C2CCN(CCC3(c4ccccc4)CCN(C(=O)c4cc(OC)c(OC)c(OC)c4)C3)CC2)nc2ccccc21 (centres undefined)	
0.023	1.21	COC(=O)c1ccc(Cn2c(C(=O)C3CCN(CCC4(c5ccccc5)CCN(C(=O)c5cc(OC)c(OC)c(OC)c5)C4)CC3)nc3ccccc32)cc1 (centres undefined)	
0.012	0.446	COc1cc(C(=O)N2CCC(CCN3CCC(C(=O)c4nc5ccccc5n4CCOCc4ccco4)CC3)(c3ccccc3)C2)cc(OC)c1OC (centres undefined)	
0.027		COc1cc(C(=O)N2CCC(CCN3CCC(C(=O)c4nc5ccccc5n4Cc4cccnc4)CC3)(c3ccccc3)C2)cc(OC)c1OC (centres undefined)	
0.092	0.124	COc1cc(C(=O)N2CCC(CCN3CCC(C(=O)c4nc5ccccc5n4Cc4ccc(F)cc4)CC3)(c3ccc(Cl)c(Cl)c3)C2)cc(OC)c1OC (centres undefined)	
0.037		COc1cc(C(=O)N2CCC(CCN3CCC(C(=O)c4nc5ccccc5n4Cc4ccncc4)CC3)(c3ccccc3)C2)cc(OC)c1OC (centres undefined)	
0.042		COc1ccc(C2(CCN3CCC(C(=O)c4nc5ccccc5n4Cc4ccccn4)CC3)CCN(C(=O)c3cc(OC)c(OC)c(OC)c3)C2)cc1 (centres undefined)	
0.034		COc1cc(C(=O)N2CCC(CCN3CCC(C(=O)c4nc5ccccc5n4Cc4ccc(F)cc4)CC3)(c3ccccc3)C2)cc(OC)c1OC (centres undefined)	
0.036	3.42	COc1cc(C(=O)N2CCC(CCN3CCC(C(=O)c4nc5ccccc5n4Cc4ccc(C(=O)O)cc4)CC3)(c3ccccc3)C2)cc(OC)c1OC (centres undefined)	
0.117		COc1cc(C(=O)N2CCC(CCN3CCC(C(=O)c4nc5ccccc5n4Cc4ccc(F)cc4)CC3)(c3ccc(C(F)(F)F)cc3)C2)cc(OC)c1OC (centres undefined)	
0.021		COc1cc(C(=O)N2CCC(CCN3CCC(C(=O)c4nc5ccccc5n4Cc4ccco4)CC3)(c3ccccc3)C2)cc(OC)c1OC (centres undefined)	
0.027		COc1cc(C(=O)N2CCC(CCN3CCC(C(=O)c4nc5ccccc5n4Cc4ccccn4)CC3)(c3ccccc3)C2)cc(OC)c1OC (centres undefined)	solubility [5]: 38 µg/mL (≈ 55.2 µM); logP [8]: 3.22; ED50 (Cavia porcellus [9]): 10.3 mg/kg
